Assays:
[1] = molecular target: Aldo-keto reductase family 1 member B1 (Rattus norvegicus, UniProt P07943); assay: Inhibition of Wistar rat lens aldose reductase using D,L-glyceraldehyde as substrate incubated for 1 min measured for 4 mins by spectrophotometry
[2] = Inhibition of Wistar rat kidney aldehyde reductase using D-glucuronate as substrate at 10 uM by spectrophotometry
[3] = Inhibition of Wistar rat kidney aldehyde reductase using D-glucuronate as substrate at 100 uM by spectrophotometry
[4] = molecular target: Aldo-keto reductase family 1 member B1 (Rattus norvegicus) (UniProt P07943); assay: Inhibition of Wistar rat lens aldose reductase using D,L-glyceraldehyde as substrate at 10 uM incubated for 1 min measured for 4 mins by spectrophotometry
[5] = molecular target: Aldo-keto reductase family 1 member B1 (Rattus norvegicus) (UniProt P07943); assay: Inhibition of Wistar rat lens aldose reductase using D,L-glyceraldehyde as substrate at 100 uM incubated for 1 min measured for 4 mins by spectrophotometry
[6] = molecular target: Aldo-keto reductase family 1 member B10 (Homo sapiens, UniProt O60218); assay: Inhibition of human AKR1B10 using D-glucuronate as substrate by spectrophotometry
[7] = Octanol-phosphate buffer partition coefficient, log D of the compound at 100 uM at pH 7.4 at RT after 1 hr by shake flask method; assay type: physicochemical

Aldo-keto reductase family 1 member B10, sequence (O60218 whole entry): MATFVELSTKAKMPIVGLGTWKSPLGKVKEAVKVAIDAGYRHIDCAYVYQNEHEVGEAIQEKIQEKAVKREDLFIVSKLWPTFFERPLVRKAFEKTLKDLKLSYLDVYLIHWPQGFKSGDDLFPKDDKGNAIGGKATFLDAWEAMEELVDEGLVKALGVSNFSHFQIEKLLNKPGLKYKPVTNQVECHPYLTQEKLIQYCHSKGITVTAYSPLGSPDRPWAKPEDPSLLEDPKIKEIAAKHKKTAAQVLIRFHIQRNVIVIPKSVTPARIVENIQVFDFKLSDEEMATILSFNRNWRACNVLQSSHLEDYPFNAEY

Row | Compound | IC50 ([1]; read-out: IC50) [µM] | inhibition [3] [%] | also measured
1 | O=C(O)Cn1c2ccccc2c2nnc(Sc3ccccc3F)nc21 | 2.24 |  | IC50 ([1]; read-out: pIC50 (converted)): 2.19 µM; inhibition [2]: 1.18%
2 | O=C(O)Cn1cc(Cc2nc3c(F)c(F)cc(F)c3s2)c2ccccc21 [LIDORESTAT] | 0.005 |  | 
3 | CCN(CC)Cc1cn(CC(=O)O)c2ccccc12 | 30.1 | 38 | 
4 | O=C(O)Cn1c2ccccc2c2nn3c(nc4ccccc43)nc21 | 9.95 |  | inhibition [2]: 15.1%
5 | O=C(O)CSc1nnc2c(n1)[nH]c1ccccc12 |  |  | inhibition [4]: 3.46%
6 | O=C(O)CCn1ccc2ccccc21 |  | 11.8 | inhibition [5]: 53.5%
7 | O=C(O)Cn1cc(N2CCCC2)c2ccccc21 | 46.5 | 19.2 | 
8 | O=C(O)Cn1c2c(c3ccccc31)CCC2 | 2.87 |  | 
9 | O=C(O)Cn1ccc2ccccc21 | 7.3 |  | 
10 | CCCNC(=O)CSc1nnc2c3cc(C)ccc3n(CC(=O)O)c2n1 | 0.33 |  | 
11 | O=C(O)Cn1cc(N2CCOCC2)c2ccccc21 | 34.5 | 32.5 | 
12 | Cc1c(CN(C)C)c2ccccc2n1CC(=O)O | 42.2 | 22.3 | 
13 | O=C(O)Cn1c2ccccc2c2nc3ccccc3nc21 | 2.75 |  | 
14 | Cc1cc(C)c(NC(=O)CSc2nnc3c4ccccc4n(CC(=O)O)c3n2)c(C)c1 | 4.06 |  | inhibition [2]: 23.5%
15 | CC(C)(C)C(=O)c1cn(CC(=O)O)c2ccccc12 | 13.8 |  | 
16 | O=C(O)Cn1c2ccccc2c2cn[nH]c(=O)c21 | 11.5 | 49 | 
17 | CC(C)Sc1nnc2c3ccccc3n(CC(=O)O)c2n1 | 2.05 |  | 
18 | Sc1nnc2c(n1)[nH]c1ccccc12 |  |  | inhibition [5]: 4.41%
19 | CCN(CC)Cc1cn(CCC(=O)O)c2ccccc12 |  | 6.65 | inhibition [5]: 19.9%
20 | O=C(O)Cn1c2ccccc2c2nnc(S)nc21 |  |  | IC50 [6]: 21.4 µM; logD at 1 h, 100 µM [7]: -1.9
